Reference: patent US20130324489A1, “NEW ANTIFUNGAL COMPOSITIONS” (DSM IP ASSETS B.V., priority 2011, published 2013)
Where “and” joins values, the source holds several entries; their conditions need not be identical. Identical values can stand only once.

Experiments:
[1] = test system: Penicillium italicum; assay: In vitro antifungal activity, 96-well microtiter plates; format: cell-based; conditions: 0.63 ppm natamycin, 25° C.
Description: Subsequently, 100 μl of a Botrytis cinerea suspension prepared in PCB medium was used to inoculated each well with 2.5×10^3 spores/ml.
After incubation of the microtiter plates at 25° C., the in vitro antifungal activity (%) of the individual active ingredients was assessed by calculating the reduction in mould growth observed in the presence of the active ingredient in comparison to the mould growth observed in the absence of the active ingredient. The expected antifungal activity (E in %) of the active ingredient combination was calculated according to the Colby equation (Colby, 1967): […]
wherein X and Y are the observed antifungal activities (in %) of the individual active ingredients X and Y, respectively. If the observed antifungal activity (O in %) of the combination exceeds the expected antifungal activity (E in %) of the combination and the resulting synergy factor O/E is thus >1.0, the combined application of the active ingredients leads to a synergistic antifungal effect.
The experiment was conducted as described in Example 10, except for the fact that the following compositions were tested:
Furthermore, Penicillium italicum was used for inoculation. The antifungal activity (in %) of the individual and combined active ingredients was determined according to the method described in Example 10.

[2] = test system: Penicillium italicum; assay: Treatment of wounded mandarins inoculated with Penicillium italicum (dip, mould growth); format: in vivo; conditions: 500 ppm natamycin, 2000 ppm procymidone or both, 20° C.
Description: (§1) Ten fresh, organic mandarins were used per treatment. The peel of each mandarin was wounded once using a cork borer according to the method described by de Lapeyre de Bellaire and Dubois (1987). Subsequently, each wound was inoculated with 10 μl of a Penicillium italicum suspension containing 1×10^4 of spores/ml. […] In addition, the antifungal compositions comprised 3.1% (w/w) beeswax, 0.76% (w/w) glycerol, 0.66% (w/w) polyoxyethylene sorbitan monostearate (Tween 60), 0.03% (w/w) methylhydroxyethylcellulose (MHEC), 0.02% (w/w) xanthan gum, 0.02% (w/w) anti-foaming agent, 0.15% (w/w) citric acid and 0.01% (w/w) potassium sorbate. The pH of the compositions was 4. A composition without natamycin or procymidone was used as control.
The treated mandarins were incubated in a closed box in the dark at 20° C. and assessed on mould growth after 6, 8, 10, 13, 15 and 18 days of incubation. The antifungal activity (in %) of the individual and combined active ingredients was determined by calculating the reduction in mould growth observed on the mandarins treated with the antifungal composition in comparison to the mould growth on the mandarins treated with the control composition according to the Colby method (Colby, 1967) described in Example 3.

[3] = test system: Botrytis cinerea; assay: In vitro antifungal activity, 96-well microtiter plates; format: cell-based; conditions: 1.25 ppm natamycin, 25° C.
Description: The following compositions were tested: […] After incubation of the microtiter plates at 25° C., the in vitro antifungal activity (%) of the individual active ingredients was assessed by calculating the reduction in mould growth observed in the presence of the active ingredient in comparison to the mould growth observed in the absence of the active ingredient. The expected antifungal activity (E in %) of the active ingredient combination was calculated according to the Colby equation (Colby, 1967): […] wherein X and Y are the observed antifungal activities (in %) of the individual active ingredients X and Y, respectively.

[4] = test system: Botrytis cinerea; assay: Treatment of wounded apples inoculated with Botrytis cinerea (dip, mould growth); format: in vivo; conditions: 250 ppm natamycin, 20° C.
Description: as §1, with “Twelf” for “Ten”, “apples” for “mandarins”, “Each apple” for “The peel of each mandarin”, “Botrytis cinerea” for “Penicillium italicum”, “1×10^5” for “1×10^4”, “[…] The treated apples were incubated in a closed box in the dark at 20° C.” for “A composition without natamycin or procymidone was used as control.”
During incubation, the treated apples were assessed on mould growth according to the two methods described in Example 8.

[5] = 5.0 ppm vinclozolin, 10 ppm procymidone, alone or natamycin + one of them, day 3
[6] = 50 ppm procymidone or both, day 5
[7] = 1.5 ppm vinclozolin, 1.25 ppm procymidone, alone or natamycin + one of them, day 3
[8] = 1.5 ppm vinclozolin, 1.25 ppm procymidone, alone or natamycin + one of them, day 6
[9] = 250 ppm procymidone or both, day 6
[10] = 250 ppm procymidone or both, day 7-11
[11] = 250 ppm procymidone or both, day 12-13
[12] = 250 ppm procymidone or both, day 13
[13] = 250 ppm procymidone or both, day 14
[14] = 250 ppm procymidone or both, day 14-25
[15] = 250 ppm procymidone or both, day 15
[16] = 250 ppm procymidone or both, day 17
[17] = 250 ppm procymidone or both, day 18
[18] = 250 ppm procymidone or both, day 20
[19] = 250 ppm procymidone or both, day 22
[20] = 250 ppm procymidone or both, day 25
[21] = 500 ppm procymidone or both, day 4
[22] = 500 ppm procymidone or both, day 5-6
[23] = 500 ppm procymidone or both, day 7-11
[24] = 500 ppm procymidone or both, day 12
[25] = 500 ppm procymidone or both, day 13
[26] = 500 ppm procymidone or both, day 14
[27] = 500 ppm procymidone or both, day 14-25
[28] = 500 ppm procymidone or both, day 15
[29] = 500 ppm procymidone or both, day 17
[30] = 500 ppm procymidone or both, day 18
[31] = 500 ppm procymidone or both, day 20
[32] = 500 ppm procymidone or both, day 22
[33] = 500 ppm procymidone or both, day 25

Row | Structure (SMILES) | Observed antifungal activity O (%) [1, 5] | Observed antifungal activity O (%) [1, 6] | Observed antifungal activity O (%) ([2]; day 6) | Observed antifungal activity O (%) ([2]; day 8) | Observed antifungal activity O (%) ([2]; day 10) | Observed antifungal activity O (%) ([2]; day 13) | Observed antifungal activity O (%) ([2]; day 15) | Observed antifungal activity O (%) ([2]; day 18) | Observed antifungal activity O (%) [3, 7] | Observed antifungal activity O (%) [3, 8] | Number of moulded apples/total number of 12 apples [4, 9] | Number of moulded apples/total number of 12 apples [4, 10] | Number of moulded apples/total number of 12 apples [4, 11] | Observed antifungal activity O (%) [4, 12] | Observed antifungal activity O (%) [4, 13] | Number of moulded apples/total number of 12 apples [4, 14] | Observed antifungal activity O (%) [4, 15] | Observed antifungal activity O (%) [4, 16] | Observed antifungal activity O (%) [4, 17] | Observed antifungal activity O (%) [4, 18] | also measured
1 | C[C@@H]1C/C=C/C=C/C=C/C=C/[C@H](O[C@@H]2O[C@H](C)[C@@H](O)[C@H](N)[C@@H]2O)C[C@@H]2O[C@](O)(C[C@@H](O)C[C@H]3O[C@@H]3/C=C/C(=O)O1)C[C@H](O)[C@H]2C(=O)O [Natamycin, natamycin] | 0% | 0% | 82% | 73% | 66% | 59% | 55% | 44% | 0% | 0% | 12/12 | 12/12 | 12/12 | 31% | 26% | 12/12 | 23% | 18% | 18% | 16% | Observed antifungal activity O (%) ([3]; 3.0 ppm iprodione or both, day 5): 50%; Observed antifungal activity O (%) ([3]; 7.0 ppm vinclozolin, 2.0 ppm procymidone, alone or natamycin + one of them, day 10): 0%; Observed antifungal activity O (%) ([3]; 8.0 ppm iprodione or both, day 12): 0%; Observed antifungal activity O (%) [4, 19]: 14%; Observed antifungal activity O (%) [4, 20]: 14%; Number of moulded apples/total number of 12 apples [4, 21]: 11 and 11/12; Number of moulded apples/total number of 12 apples [4, 22]: 12 and 12/12; Number of moulded apples/total number of 12 apples [4, 23]: 12 and 12/12; Number of moulded apples/total number of 12 apples [4, 24]: 12/12; Number of moulded apples/total number of 12 apples [4, 25]: 12/12; Observed antifungal activity O (%) [4, 25]: 31%; Observed antifungal activity O (%) [4, 26]: 26%; Number of moulded apples/total number of 12 apples [4, 27]: 12/12; Observed antifungal activity O (%) [4, 28]: 23%; Observed antifungal activity O (%) [4, 29]: 18%; Observed antifungal activity O (%) [4, 30]: 18%; Observed antifungal activity O (%) [4, 31]: 16%; Observed antifungal activity O (%) [4, 32]: 14%; Observed antifungal activity O (%) [4, 33]: 14%
2 | CC12CC1(C)C(=O)N(c1cc(Cl)cc(Cl)c1)C2=O (stereo not drawn) [Procymidone, procymidone] | 0% | 0% | 0% | 0% | 0% | 0% | 0% | 0% | 0% | 0% | 7 and 7/12 | 8 and 8/12 | 12/12 | 65% | 55% | 12/12 | 50% | 44% | 37% | 31% | Observed antifungal activity O (%) [4, 19]: 26%; Observed antifungal activity O (%) [4, 20]: 17%; Number of moulded apples/total number of 12 apples [4, 21]: 8 and 8/12; Number of moulded apples/total number of 12 apples [4, 22]: 8 and 8/12; Number of moulded apples/total number of 12 apples [4, 23]: 8 and 8/12; Number of moulded apples/total number of 12 apples [4, 24]: 10 and 10/12; Number of moulded apples/total number of 12 apples [4, 25]: 11 and 11/12; Observed antifungal activity O (%) [4, 25]: 75%; Observed antifungal activity O (%) [4, 26]: 71%; Number of moulded apples/total number of 12 apples [4, 27]: 12/12; Observed antifungal activity O (%) [4, 28]: 67%; Observed antifungal activity O (%) [4, 29]: 57%; Observed antifungal activity O (%) [4, 30]: 51%; Observed antifungal activity O (%) [4, 31]: 45%; Observed antifungal activity O (%) [4, 32]: 38%; Observed antifungal activity O (%) [4, 33]: 26%
